Laboratory results taken from patent US9914732B2, “Diazabicyclo[4.3.1]decane derivatives for treatment of psychiatric disorders” (Max-Planck-Gesellschaft zur Forderung der Wissenschaften …, priority 2014, dated 2018).
pKi: −log10 of the molar value.

Columns and labels:
FKBP51 = target: T1, FKBP51 (Homo sapiens, UniProt Q13451); assay: Fluorescence polarization (FP) assay, binding to the FK506-binding domain of FKBP51; settings: FK506-binding domain of FKBP51 (FKBP51FK1), competition with fluorescent ligand 2b
T1 sequence (Q13451 42-130 limits assumed): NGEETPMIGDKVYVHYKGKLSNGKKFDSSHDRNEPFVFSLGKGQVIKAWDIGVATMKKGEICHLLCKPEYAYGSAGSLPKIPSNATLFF
Procedure: (§1) In the present invention, in vitro fluorescence polarization assays with the compounds of the general formula (I) were performed to determine the binding affinities to FKBP51 and FKBP52 or to the isolated FK506-binding domains of FKBP51 and FKBP52 ([…]). Binding to the isolated FK506-binding domains is reliably indicative of binding to the full length proteins. The affinities for the isolated FK506-binding domains and for full-length FKBP51 or FKBP52 are the same for all compounds tested so far (Kozany et al, ChemBioChem 2009, 10, 1402-1410).
(§2) Example 11: Fluorescence Polarization (FP) Assays
(§3) In-vitro fluorescence polarization assays were performed to determine the binding affinities for FKBP51 and 52 according to a literature procedure (Kozany, C.; Marz, A.; Kress, C.; Hausch, F., Fluorescent probes to characterise FK506-binding proteins. Chembiochem 2009, 10, (8), 1402-10).
(§4) For fluorescence polarization assays the fluorescent ligand 2b was dissolved in HEPES (20 mm, pH 8), Triton-X100 (0.01%), at double the concentration required for the final sample. The target protein was also diluted in this assay buffer at double the highest concentration required for the final sample. This protein stock was used for a 1:1 serial dilution.
(§5) The fluorescent ligand 2b was diluted in assay buffer to a concentration double the final concentration (20 nM 2b). The inventive compound was dissolved in DMSO to reach a 100-times concentrated stock solution. This was used for a 1:1 serial dilution in DMSO. Every sample of this serial dilution was diluted by a factor of 50 in assay buffer supplemented with ligand 2b to achieve a 2× concentrated mixture of ligand 2b and the inventive compound. To this competitive ligand double the protein concentration for 2b assay: FKBP51FK1 560 nM (2×280 nM) or FKBP52FK1 800 nM (2×400 nM) diluted in assay buffer was added.
(§6) The samples were transferred to black 384-well assay plates (No.: 3575; Corning Life Sciences). After incubation at room temperature for 30 min the fluorescence anisotropy was measured (GENios Pro, Tecan, Männedorf, Switzerland) by using an excitation filters of 485/20 nm and emission filters of 535/25 nm. The binding assays were performed in duplicates in the plate format.
(§7) The competition curves were analyzed by using SigmaPlot9. Data were fitted to a four parameter logistic curve to deduce the IC50 values. For the analysis of K1 values, data were fitted to the following equation (Z. X. Wang, FEBS Lett. 1995, 360, 111-114). A=(Amax−Amin)/[L]t×(([L]t×((2×((Klig+Kcomp+[L]t+[I]t−[R]t)^2−3×(Kcomp×([L]t−[R]t)+Klig×([I]t−[R]t)+[…]))^0.5×COS(ARCCOS((−2×(Klig+Kcomp+[L]t+[I]t−[R]t)^3+9×(Klig+Kcomp+[L]t+[I]t−[R]t)×(Kcomp×([L]t−[R]t)+Klig×([I]t−[R]t)+Klig×Kcomp)−27×(−1×Klig×Kcomp×[R]t))/(2×((((Klig+Kcomp+[L]t+[I]t−[R]t)^2−3×(Kcomp×([L]t−[R]t)+Klig×([I]t−[R]t)+Klig×Kcomp))^3)^0.5)))/3))−(Klig+Kcomp+[L]t+[I]t−[R]t)))/((3×Klig)+((2×((Klig+Kcomp+[L]t+[I]t−[R]t)^2−3×(Kcomp×([L]t−[R]t)+Klig×([I]t−[R]t)+Klig×Kcomp))^0.5×COS(ARCCOS((−2×(Klig+Kcomp+[L]t+[I]t−[R]t)^3+9×(Klig+Kcomp+[L]t+[I]t−[R]t)×(Kcomp×([L]t−[R]t)+Klig×([I]t−[R]t)+Klig×Kcomp)−27×(−1×Klig×Kcomp×[R]t))/(2×((((Klig+Kcomp+[L]t+[I]t−[R]t)^2−3×(Kcomp×([L]t−[R]t)+Klig×([I]t−[R]t)+Klig×Kcomp))^3)^0.5)))/3))−(Klig+Kcomp+[L]t+[I]t−[R]t)))+Amin
(§8) In this equation Klig and Kcomp stand for the Kd values of the used tracer or competing inhibitor, [I]t is referring to the total concentration of the titrated inhibitor.

FKBP52 = target: T2, FKBP52 (Homo sapiens, UniProt Q02790); assay: Fluorescence polarization (FP) assay, binding to the FK506-binding domain of FKBP52; settings: FK506-binding domain of FKBP52 (FKBP52FK1), competition with fluorescent ligand 2b
T2 sequence (Q02790 50-138 limits assumed): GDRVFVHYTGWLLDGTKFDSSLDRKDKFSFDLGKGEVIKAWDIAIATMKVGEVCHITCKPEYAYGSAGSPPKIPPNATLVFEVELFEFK
Procedure: as §1, §2, §3, §4, §5, §6, §7, §8

Row | SMILES | pKi (FKBP51) | pKi (FKBP52)
1 | C=CC1CN(Cc2ccccn2)C(=O)C2CCCC1N2S(=O)(=O)c1cccc(Br)c1 (stereo in doubt) [Compound K5, (1S,5R,6R)-10-((3-bromophenyl)sulfonyl)-3-(pyridin-2-ylmethyl)-5-vinyl-3,10-diazabicyclo[4.3.1]decan-2-one] | ≥ 7.00 | ≥ 7.00
2 | C=CC1CN(Cc2ccccn2)C(=O)C2CCCC1N2S(=O)(=O)c1ccc2nc(C)sc2c1 (stereo in doubt) [Compound K6, (1S,5R,6R)-10-((2-methylbenzo[d]thiazol-6-yl)sulfonyl)-3-(pyridin-2-ylmethyl)-5-vinyl-3,10-diazabicyclo[4.3.1]decan-2-one] | ≥ 7.00 | ≥ 7.00
3 | C=CC1CN(Cc2ccccn2)C(=O)C2CCCC1N2S(=O)(=O)c1ccc2ncsc2c1 (stereo in doubt) [Compound K9, (1S,5R,6R)-10-(benzo[d]thiazol-6-ylsulfonyl)-3-(pyridin-2-ylmethyl)-5-vinyl-3,10-diazabicyclo[4.3.1]decan-2-one] | 6.30 to 7.00 | 6.30 to 7.00
4 | C=CC1CN(Cc2ccccn2)C(=O)C2CCCC1N2S(=O)(=O)c1ccc(OC)c(Cl)c1 (stereo in doubt) [Compound K10, (1S,5R,6R)-10-((3-chloro-4-methoxyphenyl)sulfonyl)-3-(pyridin-2-ylmethyl)-5-vinyl-3,10-diazabicyclo[4.3.1]decan-2-one] | 6.30 to 7.00 | 6.30 to 7.00
5 | C=CC1CN(Cc2ccccn2)C(=O)C2CCCC1N2S(=O)(=O)c1cccc(Cl)c1 (stereo in doubt) [Compound K11, (1S,5R,6R)-10-((3-chlorophenyl)sulfonyl)-3-(pyridin-2-ylmethyl)-5-vinyl-3,10-diazabicyclo[4.3.1]decan-2-one] | 6.30 to 7.00 | 6.30 to 7.00
6 | C=CC1CN(Cc2ccccn2)C(=O)C2CCCC1N2S(=O)(=O)c1ccc2c(c1)CCO2 (stereo in doubt) [Compound K12, (1S,5R,6R)-10-((2,3-dihydrobenzofuran-5-yl)sulfonyl)-3-(pyridin-2-ylmethyl)-5-vinyl-3,10-diazabicyclo[4.3.1]decan-2-one] | 6.00 to 6.30 | 6.00 to 6.30
7 | C=CC1CN(Cc2ccccn2)C(=O)C2CCCC1N2S(=O)(=O)c1ccccc1 (stereo in doubt) [Compound K13, (1S,5R,6R)-10-(phenylsulfonyl)-3-(pyridin-2-ylmethyl)-5-vinyl-3,10-diazabicyclo[4.3.1]decan-2-one] | 6.00 to 6.30 | 6.00 to 6.30
8 | C=CC1CN(Cc2ccccn2)C(=O)C2CCCC1N2S(=O)(=O)c1cccc(F)c1 (stereo in doubt) [Compound K15, (1S,5R,6R)-10-((3-fluorophenyl)sulfonyl)-3-(pyridin-2-ylmethyl)-5-vinyl-3,10-diazabicyclo[4.3.1]decan-2-one] | 6.30 to 7.00 | 6.30 to 7.00
9 | C=CC1CN(Cc2ccccn2)C(=O)C2CCCC1N2S(=O)(=O)c1cc(Br)cc(Br)c1 (stereo in doubt) [Compound K16, (1S,5R,6R)-10-((3,5-dibromophenyl)sulfonyl)-3-(pyridin-2-ylmethyl)-5-vinyl-3,10-diazabicyclo[4.3.1]decan-2-one] | ≥ 7.00 | ≥ 7.00
10 | C=CC1CN(Cc2ccccn2)C(=O)C2CCCC1N2S(=O)(=O)c1cccc(C(N)=O)c1 (stereo in doubt) [Compound K17, 3-(((1S,5R,6R)-2-oxo-3-(pyridin-2-ylmethyl)-5-vinyl-3,10-diazabicyclo[4.3.1]decan-10-yl)sulfonyl)benzamide] | 6.30 to 7.00 | 6.30 to 7.00
11 | C=CC1CN(Cc2ccccn2)C(=O)C2CCCC1N2S(=O)(=O)c1ccc(NC(C)=O)c(Br)c1 (stereo in doubt) [Compound K20, N-(2-bromo-4-(((1S,5R,6R)-2-oxo-3-(pyridin-2-ylmethyl)-5-vinyl-3,10-diazabicyclo[4.3.1]decan-10-yl)sulfonyl)phenyl)acetamide] | 6.30 to 7.00 | 6.30 to 7.00
12 | C=CC1CN(Cc2ccccn2)C(=O)C2CCCC1N2S(=O)(=O)c1ccc(NC(C)=O)c(Cl)c1 (stereo in doubt) [Compound K21, N-(2-chloro-4-(((1S,5R,6R)-2-oxo-3-(pyridin-2-ylmethyl)-5-vinyl-3,10-diazabicyclo[4.3.1]decan-10-yl)sulfonyl)phenyl)acetamide] | 6.30 to 7.00 | 6.30 to 7.00
13 | C=CC1CN(Cc2ccccn2)C(=O)C2CCCC1N2S(=O)(=O)c1cc(Br)cc(C(=O)OC)c1 (stereo in doubt) [Compound K24, methyl 3-bromo-5-(((1S,5R,6R)-2-oxo-3-(pyridin-2-ylmethyl)-5-vinyl-3,10-diazabicyclo[4.3.1]decan-10-yl)sulfonyl)benzoate] | ≥ 7.00 | ≥ 7.00
14 | C=CC1CN(Cc2ccccn2)C(=O)C2CCCC1N2S(=O)(=O)c1cccnc1 (stereo in doubt) [Compound K26, (1S,5R,6R)-3-(pyridin-2-ylmethyl)-10-(pyridin-3-ylsulfonyl)-5-vinyl-3,10-diazabicyclo[4.3.1]decan-2-one] | 6.30 to 7.00 | 6.30 to 7.00
15 | C=CC1CN(Cc2ccccn2)C(=O)C2CCCC1N2S(=O)(=O)c1ccc(-c2ncccn2)cc1 (stereo in doubt) [Compound K28, (1S,5R,6R)-3-(pyridin-2-ylmethyl)-10-((4-(pyrimidin-2-yl)phenyl)sulfonyl)-5-vinyl-3,10-diazabicyclo[4.3.1]decan-2-one] | ≥ 7.00 | ≥ 7.00
16 | C=CC1CN(Cc2ccccn2)C(=O)C2CCCC1N2S(=O)(=O)c1nc2ccccc2[nH]1 (stereo in doubt) [Compound K29, (1S,5R,6R)-10-((1H-benzo[d]imidazol-2-yl)sulfonyl)-3-(pyridin-2-ylmethyl)-5-vinyl-3,10-diazabicyclo[4.3.1]decan-2-one] | ≥ 7.00 | ≥ 7.00
17 | CCC1CN(Cc2ccccn2)C(=O)C2CCCC1N2S(=O)(=O)c1cc(Cl)cc(Cl)c1 (stereo in doubt) [Compound M1, (1S,5R,6R)-10-((3,5-dichlorophenyl)sulfonyl)-5-ethyl-3-(pyridin-2-ylmethyl)-3,10-diazabicyclo[4.3.1]decan-2-one] | ≥ 7.00 | ≥ 7.00
18 | COCC1CN(Cc2ccccn2)C(=O)C2CCCC1N2S(=O)(=O)c1cc(Cl)cc(Cl)c1 (stereo in doubt) [Compound M5, (1S,5R,6R)-10-((3,5-dichlorophenyl)sulfonyl)-5-(methoxymethyl)-3-(pyridin-2-ylmethyl)-3,10-diazabicyclo[4.3.1]decan-2-one] | ≥ 7.00 | ≥ 7.00
19 | COCC1CN(Cc2cnnn2-c2ccccc2)C(=O)C2CCCC1N2S(=O)(=O)c1cccc(F)c1 (stereo in doubt) [Compound N29, (1S,5R,6R)-10-((3-fluorophenyl)sulfonyl)-5-(methoxymethyl)-3-((1-phenyl-1H-1,2,3-triazol-5-yl)methyl)-3,10-diazabicyclo[4.3.1]decan-2-one] | 6.30 to 7.00 | 6.30 to 7.00
